# According to patent US11155576B2, “Synthetic peptides, enzymatic formation of pericellular hydrogels/nanofibrils, and methods of use” (BRANDEIS UNIVERSITY, priority 2014, dated 2021):
# Entries after “also recorded” stand apart in the source; their conditions may differ. Square brackets hold non-standard residues; d marks the D form. Peptide text beside a SMILES is read from it. * marks the point of attachment. ξ: configuration not given here. d(pY) = N[C@H](Cc1ccc(OP(=O)(O)O)cc1)C(=O)O; NBD = O=[N+]([O-])c1ccc(*)c2nonc12; ξ2Nal = NC(Cc1ccc2ccccc2c1)C(=O)O; βAla = NCCC(=O)O
# What was measured:
# [1] = test system: HeLa cells; assay: Cell adhesion assay; type: cell-based, human; settings: 560 μM, trypsinized HeLa cells, at 4 hours
# Description: Cells in exponential growth phase were detached using 0.25% trypsin-EDTA. After neutralizing trypsin by addition of complete culture medium, the cells were collected by centrifuge (1000 rpm, 3 min). The cell pellet was suspended by addition of culture medium to a concentration of 4×10^5 cells/mL. 1 mL of the cell suspension was mixed with 1 mL of 2×D-2a or D-2b containing culture media. The resulting solutions were added into 96 well plate at 100 μL/well. After the desired time of incubation at 37° C., 5% CO2, the solution was gently removed, and then 100 μL of culture medium and 10 μL of 5 mg/mL MTT were added to each well. Following 4 hour incubation in the dark, 100 μL of 10% SDS with 0.01M HCl was added to each well to stop the reduction reaction and to dissolve the purple. After incubation of the cells at 37° C. for overnight, the viability was measured. Data represent the mean±standard deviation of three independent experiments.
# [2] = test system: secretory phosphatases present in HeLa cell conditioned medium; assay: Hydrogelation in HeLa cell conditioned medium; type: biochemical, human; settings: 560 μM, 48 hours
# Description: 2×10^5 of cells in exponential growth phase were seeded in a 35 mm Petri dish with 1 mL complete culture medium. Following overnight incubation, 1 mL of new medium was replaced and incubated for 24 h at 5% CO2, 37° C. The medium was next removed and centrifuged at 10,000 rpm for 5 minutes. The suspension was placed into a 1.5 mL Eppendorf® tube and stored at −20° C. Stored conditioned medium was thawed and warmed to 37° C. in water bath immediately before use.
# HeLa cell conditioned medium (“CM”) dephosphorylates D-2a to form D-2b nanofibrils.
# [3] = test system: HeLa cells; assay: Cell viability assay (MTT), HeLa; type: cell-based, human; settings: 280 μM, direct addition
# Description: Cells in exponential growth phase were seeded in a 96 well plate at a concentration of 2×10^4 cells/well. The cells were allowed to attach to the wells for 24 hours at 37° C., 5% CO2. The culture medium was removed and 100 μL culture medium containing compounds (immediately diluted from fresh prepared stock solution of 10 mM) at gradient concentrations (0 μM as the control) was placed into each well. After culturing at 37° C., 5% CO2 for 48 hours, each well was added by 10 μL of 5 mg/mL MTT (3-(4,5-dimethylthiazoL-2-yl)-2,5-diphenyltetrazolium bromide), and the plated cells were incubated in the dark for 4 hours. 100 μL 10% SDS with 0.01M HCl was added to each well to stop the reduction reaction and to dissolve the purple. After overnight incubation of the cells at 37° C., the OD at 595 nm of the solution was measured in a microplate reader. Data represent the mean±standard deviation of three independent experiments.
# [4] = test system: HeLa cells; assay: Pericellular hydrogelation on HeLa cells (optical images); type: cell-based, human; settings: 560 μM, 2 hours at 37° C.
# Description: An 11.2 mM (8.09 mg/mL) stock solution of D-2a was prepared in ddH2O. The pH was adjusted to 7.4 using 1N NaOH. 2×10^5 cells in exponential growth phase were seeded in 35 mm Petri dish with 1 mL complete culture medium. Following overnight incubation, the medium was replaced with 1 mL of medium containing D-2a (diluted from the stock solution immediately prior to use). Petri dishes were incubated at 37° C. for two hours. Next, dishes were removed from the incubator and titled on a bench to visualize the pericellular hydrogel. Prior to co-incubation with phosphatase inhibitors, cells were washed three times with medium containing Pierce phosphatase inhibitor cocktail (Thermo) (contains sodium floride, sodium orthovanadate, sodium pyrophosphate, and beta-glycerophosphate). Next, 1 mL of medium containing both the inhibitor cocktail and D-2a was applied to the cells.
# [5] = test system: HeLa cells; assay: LC-MS composition of pericellular hydrogel/nanofibrils and suspension medium of HeLa cells; type: in vitro ADME, human; settings: HeLa cells incubated with precursor at 560 μM at 37° C. for 12 hours
# [6] = test system: Capan-2; assay: Ectophosphatase imaging of live cells, Capan-2; type: cell-based, human; settings: 500 μM, 24 hour incubation
# Description: (§1) FIGS. 18A-H show imaging and ectophosphatase quantification of live cells incubated with D3-a. FIGS. 18A-F show confocal microscopy images. […] The scale bar is […]. The images in FIG. 18B show the time course of fluorescence on HeLa cells incubated with D3-a for 30 minutes, 1 hour, 3 hours, and 6 hours, respectively. Nuclei were stained with Hoechst 33342. FIG. 18C is a 3D stacked z-scan image of fluorescence on HeLa cells treated with D-3a for 6 hours. […] Scale bar: 100 μm for FIG. 18B, upper panels and FIG. 18D; 10 μm for FIG. 18B, lower panels, FIG. 18E, and FIG. 18F. [D-3a]=500 μM for enhancing spatiotemporal resolution. […] FIG. 18H is a plot of time versus the fluorescence of pericellular nanofibrils on HeLa cells treated with D-3a. The initial cell number is 5,000 cells/well. All the confocal microscope images were taken after removing the medium with D-3a and then adding the live cell image solution (Invitrogen Life Technologies A14291DJ). [D3-a]=500 μM for FIGS. 18G-H.
# (§2) To validate D-3a as an effective agent for the detection of phosphatase activity on a wide variety of cells, the cellular ectophosphatase activity of various cell lines, including PC-12, Capan-2, A375, Ect1/E6E7, and C3H10T1/2, was evaluated following 24 hour incubation of cells with 500 μM D-3a (FIG. 18A).
# [7] = test system: HeLa cells; assay: Fluorescence imaging of HeLa/HS-5 co-culture, HeLa; type: cell-based, human; settings: co-culture of HeLa and HS-5, 500 μM, 6 and 24 hours
# Source text: (§3) FIGS. 17A-C illustrates that phosphatases catalyze self-assembly to form fluorescent nanofibrils with high spatiotemporal resolution. FIG. 17A is an illustration of phosphatase-catalyzed spatiotemporal formation of fluorescent pericellular nanofibrils in co-culture mimicking tumor microenvironment. […] ALP or tyrosine phosphatase (“PTP”) converts D-3a to D-3b, which self-assembles in physiological condition to form fluorescent nanofibrils of D-3b. FIG. 17C contains a pair of fluorescent images showing that the fluorescent nanofibrils of D-3b selectively form on HeLa cells (the cancer cell, identified by arrows) and […] (the stromal cell, indicated by the arrow heads) in the co-culture of HeLa and HS-5. [D-3a]=500 μM, 6 hours (left panel) and 24 hours (right panel) incubation (scale bar=10 μm, the nuclei stained by Hoechst 33342, a DNA dye for live cells).
# (§4) Co-culture of cancer cell (i.e., HeLa cells) and stromal cells (i.e., HS-5 cells) mimics the tumor microenvironment (Straussman et al., Nature 487:500-U118 (2012), which is hereby incorporated by reference in its entirety). […] This approach also offers a method for the visualization of live cells that express ectophosphatases.
# [8] = test system: C3H10T1/2; assay: Ectophosphatase imaging of live cells, C3H10T1/2; type: cell-based, murine; settings: 500 μM, 24 hour incubation
# Description: as §1, §2
# [9] = test system: PC-12 Adh; assay: Ectophosphatase imaging of live cells, PC-12 Adh; type: cell-based, rat; settings: 500 μM, 24 hour incubation
# Description: as §1, §2
# [10] = test system: Ect1/E6E7; assay: Ectophosphatase imaging of live cells, Ect1/E6E7; type: cell-based, human; settings: 500 μM, 24 hour incubation
# Description: as §1, §2
# [11] = test system: HS-5 cells; assay: Fluorescence imaging of HeLa/HS-5 co-culture, HS-5; type: cell-based; settings: co-culture of HeLa and HS-5, 500 μM, 6 and 24 hours
# Source text: as §3, §4
# [12] = test system: Alkaline-phosphatase (“ALP”); settings: D-3a; ALP (2 U/ml) in FIG. 38B
# Source text: […] Scale bar=100 nm.
# Napthalene capped tripeptide precursor molecule D-2a and hydrogelator molecule D-2b, synthesized according to Yang et al. (Small 3:558-562 (2007), which is hereby incorporated by reference in its entirety), are comprised of the tripeptide D-Phe-D-Phe-D-Tyr (FIG. 1B). The D-Tyr of D-2a is phosphorylated (FIG. 1B).
# [13] = test system: HeLa cells; assay: Ectophosphatase imaging of live cells, HeLa time course; type: cell-based, human
# Description: as §1
# To investigate the spatiotemporal resolution of D-3a fluorescence, HeLa cells were incubated with 500 μM D-3a for varying amounts of time (30 minutes, 1 hour, 3 hours, and 6 hours, respectively) and imaged by confocal microscopy (FIG. 18B). […] Quantification of ectophosphatase activity on the surface of HeLa cells treated with 500 μM of D-3a is shown in FIGS. 18G-18H as a function of cell number or time, respectively.
# [14] = test system: A375; assay: Ectophosphatase imaging of live cells, A375; type: cell-based, human; settings: 500 μM, 24 hour incubation
# Description: as §1, §2
compound,measurement,setting,value
Nap-D-Phe-D-Phe-D-Tyr [D-2b],Cells reattached to surface,[1],> 80%
same,Hydrogel formation in HeLa cell conditioned medium,[2],fails to form a hydrogel
same,Growth inhibition of HeLa cells,[3],hardly inhibits the growth
same,Pericellular hydrogel formation on HeLa cells,[4],hardly any hydrogelation; also recorded: does not form pericellular hydrogels
O=C(Cc1ccc2ccccc2c1)N[C@@H](Cc1ccccc1)C(=O)N[C@@H](Cc1ccccc1)C(=O)N[C@@H](Cc1ccc(OP(=O)(O)O)cc1)C(=O)O [L-2a],L-2b in suspension medium,[5],176.6 µM
same,L-3 in suspension medium,[5],270.4 µM
"O=C(CCNc1ccc([N+](=O)[O-])c2nonc12)NC(Cc1ccc2ccccc2c1)C(=O)N[C@H](Cc1ccccc1)C(=O)N[C@H](Cc1ccccc1)C(=O)N[C@H](Cc1ccc(OP(=O)(O)O)cc1)C(=O)O (stereo partly drawn) [D-3a, NBD-D-Nal-D-Phe-D-Phe-D-pTyr] ({NBD-βAla}-[ξ2Nal][dF][dF][d(pY)]-OH)",NBD fluorescence,[6],weak
same,NBD fluorescence on cancer cells in co-culture,[7],selective formation of bright yellow (NBD) fluorescence on the surface of the cancer cells
same,NBD fluorescence,[8],sporadic fluorescence on cell surface
same,Cell surface exhibiting NBD fluorescence,[9],more than 50%
same,NBD fluorescence,[10],strong fluorescence in the cytosol
same,NBD fluorescence on stromal cells in co-culture,[11],only yellow puncta are observed inside the HS-5 stromal cells
same,Hydrogel formation after phosphatase-catalyzed dephosphorylation,[12],self-assembles to form the fluorescent nanonets/hydrogel
same,Cell surface fluorescence over time,"[13]; 500 μM, 30 minutes, 1 hour, 3 hours, 6 hours",increased cell surface fluorescence with time
same,Fluorescence after re-incubation in fresh medium,"[13]; 6 hour incubation with D-3a, then fresh medium for 24 hours",only nuclear dye fluorescence
same,NBD fluorescence,[14],no fluorescence
